Experimental data published in patent US9896443B2, “Perforin inhibiting benzenesulfonamide compounds, preparation and uses thereof” (Peter MacCallum Cancer Institute, priority 2012, dated 2018).
Read-outs that look alike come from different tables or passages of the source.

How the values were obtained:
[1] = molecular target: recombinant perforin (UniProt P10820); assay type: cell-based
Experimental: Inhibition of perforin-mediated lysis of Jurkat cells.
The ability of the compounds to inhibit the lysis of nucleated (Jurkat T lymphoma) cells in the presence of 0.1% BSA, as measured by release of ^51Cr was measured. Jurkat target cells were labelled by incubation in medium with 100 μCi ^51Cr for one hour. The cells were then washed three times to remove unincorporated isotope and re-suspended at 1×10^5 cells per mL in RPMI buffer supplemented with 0.1% BSA. […] Each data point was performed in triplicate and an IC50 was calculated from the range of concentrations described to above.

[2] = test system: KHYG-1 NK cell-mediated lysis of K562 cells; experiment: Inhibition of KHYG-1 NK cell-mediated lysis of K562 cells (51Cr release); assay type: cell-based; conditions: 4 h, K562 target cells, Effector:Target 2:1, 4 hours at 37° C.
Experimental: Inhibition of KHYG-1 NK Cell-Mediated Lysis of K562 Cells.
Test compounds were added to KHYG-1 cells at various concentrations up to 20 µM and incubated at RT for 20 minutes. 1×10^6 K562 target cells were labelled with 75 μCi ^51Cr in 200 μl RPMI for 90 mins at 37° C., cells were washed as described above and resuspended in 5 ml RPMI+0.1% BSA. 50 μl of ^51Cr labelled K562 leukemia target cells were added to each well of the KHYG-1 plate (Effector:Target 2:1) and incubated at 37° C. for 4 hours. ^51Cr release was assayed using a Skatron Harvesting Press and radioactivity estimated on a Wallac Wizard 1470 Automatic Gamma counter (Turku, Finland). The percentage of specific cytotoxicity was calculated by the formula: […]

[3] = lysis of Jurkat T lymphoma cells by recombinant perforin, 0.1% BSA, 30 min pre-incubation, 4 hours at 37° C.; read-out: Jurkat IC50

recombinant perforin, sequence (P10820 whole entry): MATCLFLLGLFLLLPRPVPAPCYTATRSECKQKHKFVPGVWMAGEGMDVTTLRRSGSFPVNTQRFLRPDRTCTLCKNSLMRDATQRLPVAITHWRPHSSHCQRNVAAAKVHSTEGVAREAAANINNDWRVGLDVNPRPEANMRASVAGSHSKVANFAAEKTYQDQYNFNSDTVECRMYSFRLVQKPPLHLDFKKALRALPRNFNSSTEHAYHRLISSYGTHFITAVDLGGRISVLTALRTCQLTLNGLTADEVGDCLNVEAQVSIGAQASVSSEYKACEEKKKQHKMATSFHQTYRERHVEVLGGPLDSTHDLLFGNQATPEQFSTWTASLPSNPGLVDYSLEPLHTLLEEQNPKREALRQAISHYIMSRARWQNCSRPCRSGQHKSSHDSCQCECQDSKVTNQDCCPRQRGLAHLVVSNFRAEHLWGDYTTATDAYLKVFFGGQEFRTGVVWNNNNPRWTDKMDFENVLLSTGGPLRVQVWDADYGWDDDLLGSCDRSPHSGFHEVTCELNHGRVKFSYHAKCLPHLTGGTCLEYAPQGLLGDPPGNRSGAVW

Compound | melting point | IC50 ([1]; read-out: Jurkat IC50; lysis of Jurkat T lymphoma cells by recombinant perforin, 0.1% BSA, 30 min pre-incubation, 4 hours at 37° C.) | inhibition at 20 µM [2] | IC50 [1, 3]
Cc1cccc(S(=O)(=O)Nc2cncc(-c3ccc(-c4ccc5c(c4)CN(C)C5=O)s3)c2)c1 [Compound 2, 3-Methyl-N-(5-(5-(2-methyl-1-oxoisoindolin-5-yl)thiophen-2-yl)pyridin-3-yl)benzenesulfonamide] | 281 to 284 °C | 7.33 µM | 27% | –
CN1Cc2cc(-c3ccc(-c4cncc(NS(=O)(=O)c5ccccc5F)c4)s3)ccc2C1=O [Compound 4, 2-Fluoro-N-(5-(5-(2-methyl-1-oxoisoindolin-5-yl)thiophen-2-yl)pyridin-3-yl)benzene-sulfonamide] | 289 to 292 °C | – | 40% | 2.03 µM
CN1Cc2cc(-c3ccc(-c4cncc(NS(=O)(=O)c5ccccc5Cl)c4)s3)ccc2C1=O [Compound 9, 2-Chloro-N-(5-(5-(2-methyl-1-oxoisoindolin-5-yl)thiophen-2-yl)pyridin-3-yl)benzenesulfonamide] | 299 to 303 °C | – | 47% | 4.01 µM
CN1Cc2cc(-c3ccc(-c4cncc(NS(=O)(=O)c5cccc(Cl)c5)c4)s3)ccc2C1=O [Compound 10, 3-Chloro-N-(5-(5-(2-methyl-1-oxoisoindolin-5-yl)thiophen-2-yl)pyridin-3-yl)benzenesulfonamide] | 291 to 295 °C | – | 31% | 2.42 µM
CN1Cc2cc(-c3ccc(-c4cncc(NS(=O)(=O)c5ccc(Cl)c(Cl)c5)c4)s3)ccc2C1=O [Compound 12, 3,4-Dichloro-N-(5-(5-(2-methyl-1-oxoisoindolin-5-yl)thiophen-2-yl)pyridin-3-yl)benzenesulfonamide] | 256 to 259 °C | – | 45% | 1.32 µM
CN1Cc2cc(-c3ccc(-c4cncc(NS(=O)(=O)c5ccc(Cl)cc5Cl)c4)s3)ccc2C1=O [Compound 13, 2,4-Dichloro-N-(5-(5-(2-methyl-1-oxoisoindolin-5-yl)thiophen-2-yl)pyridin-3-yl)benzene-sulfonamide] | 282 to 285 °C | – | – | 15 µM
CN1Cc2cc(-c3ccc(-c4cncc(NS(=O)(=O)c5ccccc5Br)c4)s3)ccc2C1=O [Compound 15, 2-Bromo-N-(5-(5-(2-methyl-1-oxoisoindolin-5-yl)thiophen-2-yl)pyridin-3-yl)benzenesulfonamide] | 289 to 293 °C | – | 42% | 2.66 µM
CN1Cc2cc(-c3ccc(-c4cncc(NS(=O)(=O)c5cccc(Br)c5)c4)s3)ccc2C1=O [Compound 16, 3-Bromo-N-(5-(5-(2-methyl-1-oxoisoindolin-5-yl)thiophen-2-yl)pyridin-3-yl)benzenesulfonamide] | 303 to 307 °C | – | 20% | 2.11 µM
CN1Cc2cc(-c3ccc(-c4cncc(NS(=O)(=O)c5ccc(Br)cc5)c4)s3)ccc2C1=O [Compound 17, 4-Bromo-N-(5-(5-(2-methyl-1-oxoisoindolin-5-yl)thiophen-2-yl)pyridin-3-yl)benzenesulfonamide] | 276 to 279 °C | – | 6% | 8.77 µM
COc1ccccc1S(=O)(=O)Nc1cncc(-c2ccc(-c3ccc4c(c3)CN(C)C4=O)s2)c1 [Compound 18, 2-Methoxy-N-(5-(5-(2-methyl-1-oxoisoindolin-5-yl)thiophen-2-yl)pyridin-3-yl)benzenesulfonamide] | 273 to 276 °C | – | – | 14.8 µM
COc1cccc(S(=O)(=O)Nc2cncc(-c3ccc(-c4ccc5c(c4)CN(C)C5=O)s3)c2)c1 [Compound 19, 3-Methoxy-N-(5-(5-(2-methyl-1-oxoisoindolin-5-yl)thiophen-2-yl)pyridin-3-yl)benzenesulfonamide] | 278 to 280 °C | – | 17% | 2.56 µM
COc1ccc(S(=O)(=O)Nc2cncc(-c3ccc(-c4ccc5c(c4)CN(C)C5=O)s3)c2)cc1 [Compound 20, 4-Methoxy-N-(5-(5-(2-methyl-1-oxoisoindolin-5-yl)thiophen-2-yl)pyridin-3-yl)benzenesulfonamide] | 254 to 258 °C | – | 24% | 6.27 µM
CN1Cc2cc(-c3ccc(-c4cncc(NS(=O)(=O)c5ccccc5OC(F)(F)F)c4)s3)ccc2C1=O [Compound 22, N-(5-(5-(2-Methyl-1-oxoisoindolin-5-yl)thiophen-2-yl)pyridin-3-yl)-2-(trifluoromethoxy)benzenesulfonamide] | 251 to 254 °C | – | – | 17.7 µM
CN1Cc2cc(-c3ccc(-c4cncc(NS(=O)(=O)c5cccc(OC(F)(F)F)c5)c4)s3)ccc2C1=O [Compound 23, N-(5-(5-(2-Methyl-1-oxoisoindolin-5-yl)thiophen-2-yl)pyridin-3-yl)-3-(trifluoromethoxy)benzenesulfonamide] | 230 to 232 °C | – | 38% | 1.42 µM
Cc1ccc(S(=O)(=O)Nc2cncc(-c3ccc(-c4ccc5c(c4)CN(C)C5=O)s3)c2)cc1Cl [Compound 27, 3-Chloro-4-methyl-N-(5-(5-(2-methyl-1-oxoisoindolin-5-yl)thiophen-2-yl)pyridin-3-yl)benzenesulfonamide] | 277 to 279 °C | – | 52% | –
CN1Cc2cc(-c3ccc(-c4cncc(NS(=O)(=O)c5cccnc5)c4)s3)ccc2C1=O [Compound 32, N-(5-(5-(2-Methyl-1-oxoisoindolin-5-yl)thiophen-2-yl)pyridin-3-yl)pyridine-3-sulfonamide] | 283 to 286 °C | – | – | 15.1 µM
COc1ncc(-c2ccc(-c3ccc4c(c3)CNC4=O)s2)cc1NS(=O)(=O)c1ccc(F)cc1F [Compound 38, 2,4-Difluoro-N-(2-methoxy-5-(5-(1-oxoisoindolin-5-yl)thiophen-2-yl)pyridin-3-yl)benzene sulphonamide] | 266 to 270 °C | – | – | 5.41 µM
CN1Cc2cc(-c3ccc(-c4ccc(NS(=O)(=O)c5ccc(F)cc5F)nc4)s3)ccc2C1=O [Compound 42, 2,4-Difluoro-N-(5-(5-(2-methyl-1-oxoisoindolin-5-yl)thiophen-2-yl)pyridin-2-yl)benzenesulfonamide] | 269 to 272 °C | – | – | –
CN1Cc2cc(-c3ccc(-c4cncc(NC(=O)c5ccc(F)cc5F)c4)s3)ccc2C1=O [Compound 47, 2,4-Difluoro-N-(5-(5-(2-methyl-1-oxoisoindolin-5-yl)thiophen-2-yl)pyridin-3-yl)benzamide] | 267 to 269 °C | – | – | –
CC1c2cc(-c3ccc(-c4cncc(NS(=O)(=O)c5ccc(F)cc5F)c4)s3)ccc2C(=O)N1C (stereo not shown) [Compound 51, N-(5-(5-(2,3-Dimethyl-1-oxoisoindolin-5-yl)thiophen-2-yl)pyridin-3-yl)-2,4-difluorobenzenesulfonamide] | 229 to 230 °C | – | – | –
O=C1NCCc2cc(-c3ccc(-c4cncc(NS(=O)(=O)c5ccc(F)cc5F)c4)s3)ccc21 [Compound 52, 2,4-Difluoro-N-(5-(5-(1-oxo-1,2,3,4-tetrahydroisoquinolin-6-yl)thiophen-2-yl)pyridin-3-yl)benzensulphonamide] | 267 to 270 °C | – | – | –
CN1CCc2cc(-c3ccc(-c4cncc(NS(=O)(=O)c5ccc(F)cc5F)c4)s3)ccc2C1=O [Compound 53, 2,4-Difluoro-N-(5-(5-(2-methyl-1-oxo-1,2,3,4-tetrahydroisoquinolin-6-yl)thiophen-2-yl)pyridin-3-yl)benzenesulfonamide] | 262 to 265 °C | – | – | –
O=C1NCCc2ccc(-c3ccc(-c4cncc(NS(=O)(=O)c5ccc(F)cc5F)c4)s3)cc21 [Compound 54, 2,4-Difluoro-N-(5-(5-(1-oxo-1,2,3,4-tetrahydroisoquinolin-7-yl)thiophen-2-yl)pyridin-3-yl)benzenesulfonamide] | 252 °C (dec.) | – | – | –
CN1CCc2ccc(-c3ccc(-c4cncc(NS(=O)(=O)c5ccc(F)cc5F)c4)s3)cc2C1=O [Compound 55, 2,4-Difluoro-N-(5-(5-(2-methyl-1-oxo-1,2,3,4-tetrahydroisoquinolin-7-yl)thiophen-2-yl)pyridin-3-yl)benzenesulfonamide] | 280 to 283 °C | – | 0% | –
O=C1c2ccc(-c3ccc(-c4cncc(NS(=O)(=O)c5ccc(F)cc5F)c4)s3)cc2CN1CCCO [Compound 57, 2,4-Difluoro-N-(5-(5-(2-(3-hydroxypropyl)-1-oxoisoindolin-5-yl)thiophen-2-yl)pyridin-3-yl)benzenesulfonamide] | 239 to 241 °C | – | – | –
Cc1ccc(NS(=O)(=O)c2ccc(F)cc2F)cc1-c1ccc(-c2ccc3c(c2)CN(C)C3=O)s1 [Compound 61, 2,4-Difluoro-N-(4-methyl-3-(5-(2-methyl-1-oxoisoindolin-5-yl)thiophen-2-yl)phenyl)benzenesulfonamide] | 268 to 271 °C | – | – | –
